Experimental data published in patent US20240190865A1, “T-TYPE CALCIUM CHANNEL ANTAGONISTS AND USES THEREOF” (THE BOARD OF TRUSTEES OF THE LELAND STANFORD JUNIOR …, priority 2021, published 2024).
pIC50: −log10 of the molar value.

Experiments:
Miro1 [1] = assay: Miro1 reduction after compound administration, Western blot; format: cell-based; details: Western blot method
Miro1 [2] = assay: Miro1 fibroblast assay (CCCP challenge, Miro1 Western blot); format: cell-based; details: skin fibroblasts from human Parkinson's disease patients, CCCP 40 μM 24 hr; read-out: Fibroblast IC50 (nM), Miro1 reduction
Procedure: Fibroblast Challenge and Miro1 Western blot: Skin fibroblasts were obtained from human Parkinson's disease (PD) patients. CCCP was applied at 40 μM for 24 hr to fibroblasts before cells were lysed in RIPA lysis buffer with 0.25 mM PMSF and protease inhibitors. Lysates were cleared by centrifugation at 17,000×g for 10 min at 4° C., and supernatants were run in an SDS-PAGE for Western blotting. After electrophoresis, nitrocellulose membranes (Bio-Rad) were used in wet transfer. Transferred membranes were first blocked for 1 hr in phosphate-buffered saline (PBS) containing 5% fat-free milk and 0.1% tween-20, and then incubated with the following primary antibodies: rabbit anti-Miro1 (HPA010687, Sigma-Aldrich) at 1:1,000, mouse anti-ATP50 (AB14730, Abcam) at 1:5,000, mouse anti-β-Actin (A00702, Genscript) at 1:3,000, or rabbit anti-VDAC (4661S, Cell Signaling Technology) at 1:1,000 at 4° C. overnight in blocking buffer. West Dura ECL reagents (GE Healthcare) were used for ECL immunoblotting with HRP-conjugated goat anti-mouse or anti-rabbit, anti-mouse IgG (Jackson ImmunoResearch Laboratories) at 1:5-10,000. Membranes were exposed to UltraCruz autoradiography films (Santa Cruz Biotechnology) and developed on a Konica Minolta SRX-101A developer.
T-type calcium channel antagonists that could reduce Miro1 level were tested in the above PD fibroblast assay.

mutant SNCA flies = assay: Parkinson's disease fly model, locomotion (negative geotaxis Performance Index); format: in vivo; details: PD fly model (mutant SNCA flies), 2.5 μM in feed for 10 days
Procedure: The Parkinson's disease (PD) fly model was used as described in Hsieh C-H, Li L, Vanhauwaert R, Nguyen KT, Davis M D, Bu G, et al. Miro1 Marks Parkinson's Disease Subset and Miro1 Reducer Rescues Neuron Loss in Parkinson's Models. Cell Metab. 2019; 1131-1140. The average Performance Index (PI) (negative geotaxis) was evaluated. Briefly, adult flies were gently tapped to the base of a modified 25 ml climbing tube and their climbing progress was recorded after 45 sec. Three populations of flies were assessed, and for each population, flies were examined 3 times per experiment. The recorded values were used to calculate the average PI.
Feeding PD Flies with a Calcium Channel Blocker Rescues Locomotion Deficits. Benidipine was tested in a PD fly model (mutant SNCA flies) and the flies examined for their locomotion.

Cav3.2 = Cav3.2 (Homo sapiens (Human), UniProt O95180); assay: In vitro patch clamp assay (SyncroPatch 384PE); format: cell-based; details: HEK293 cells
Procedure: Patch clamp assays were performed at Charles River. HEK293 cells were cultured in Dulbecco's Modified Eagle Medium/Nutrient Mixture F-12 (D-MEM/F-12) supplemented with 10% fetal bovine serum, 100 U/mL penicillin G sodium, 100 μg/mL streptomycin sulfate and 500 μg/mL G418. Before testing, cells in culture dishes were washed twice with Hank's Balanced Salt Solution, treated with Accutase™ and re-suspended in the culture media (˜20×10^6 cells in 20 mL). Cells in suspension were allowed to recover for 10 minutes in tissue culture incubator set at 37° C. in a humidified 95% air: 5% CO2 atmosphere. Immediately before use in the SyncroPatch 384PE system (SP384PE), the cells were washed twice in extracellular buffer (HB-PS) to remove the culture medium and re-suspended in 20 mL of HB-PS. Extracellular buffer was loaded into the wells of Nanion 384-well Patch Clamp (NPC-384, 4×M) chip (60 μL per well). Then, cell suspension was pipetted into the wells (20 μL per well) of the chip. After establishment of the whole-cell configuration, membrane currents were recorded using patch clamp amplifier in the SP384PE system.

Sequence of Cav3.2 (O95180 whole entry): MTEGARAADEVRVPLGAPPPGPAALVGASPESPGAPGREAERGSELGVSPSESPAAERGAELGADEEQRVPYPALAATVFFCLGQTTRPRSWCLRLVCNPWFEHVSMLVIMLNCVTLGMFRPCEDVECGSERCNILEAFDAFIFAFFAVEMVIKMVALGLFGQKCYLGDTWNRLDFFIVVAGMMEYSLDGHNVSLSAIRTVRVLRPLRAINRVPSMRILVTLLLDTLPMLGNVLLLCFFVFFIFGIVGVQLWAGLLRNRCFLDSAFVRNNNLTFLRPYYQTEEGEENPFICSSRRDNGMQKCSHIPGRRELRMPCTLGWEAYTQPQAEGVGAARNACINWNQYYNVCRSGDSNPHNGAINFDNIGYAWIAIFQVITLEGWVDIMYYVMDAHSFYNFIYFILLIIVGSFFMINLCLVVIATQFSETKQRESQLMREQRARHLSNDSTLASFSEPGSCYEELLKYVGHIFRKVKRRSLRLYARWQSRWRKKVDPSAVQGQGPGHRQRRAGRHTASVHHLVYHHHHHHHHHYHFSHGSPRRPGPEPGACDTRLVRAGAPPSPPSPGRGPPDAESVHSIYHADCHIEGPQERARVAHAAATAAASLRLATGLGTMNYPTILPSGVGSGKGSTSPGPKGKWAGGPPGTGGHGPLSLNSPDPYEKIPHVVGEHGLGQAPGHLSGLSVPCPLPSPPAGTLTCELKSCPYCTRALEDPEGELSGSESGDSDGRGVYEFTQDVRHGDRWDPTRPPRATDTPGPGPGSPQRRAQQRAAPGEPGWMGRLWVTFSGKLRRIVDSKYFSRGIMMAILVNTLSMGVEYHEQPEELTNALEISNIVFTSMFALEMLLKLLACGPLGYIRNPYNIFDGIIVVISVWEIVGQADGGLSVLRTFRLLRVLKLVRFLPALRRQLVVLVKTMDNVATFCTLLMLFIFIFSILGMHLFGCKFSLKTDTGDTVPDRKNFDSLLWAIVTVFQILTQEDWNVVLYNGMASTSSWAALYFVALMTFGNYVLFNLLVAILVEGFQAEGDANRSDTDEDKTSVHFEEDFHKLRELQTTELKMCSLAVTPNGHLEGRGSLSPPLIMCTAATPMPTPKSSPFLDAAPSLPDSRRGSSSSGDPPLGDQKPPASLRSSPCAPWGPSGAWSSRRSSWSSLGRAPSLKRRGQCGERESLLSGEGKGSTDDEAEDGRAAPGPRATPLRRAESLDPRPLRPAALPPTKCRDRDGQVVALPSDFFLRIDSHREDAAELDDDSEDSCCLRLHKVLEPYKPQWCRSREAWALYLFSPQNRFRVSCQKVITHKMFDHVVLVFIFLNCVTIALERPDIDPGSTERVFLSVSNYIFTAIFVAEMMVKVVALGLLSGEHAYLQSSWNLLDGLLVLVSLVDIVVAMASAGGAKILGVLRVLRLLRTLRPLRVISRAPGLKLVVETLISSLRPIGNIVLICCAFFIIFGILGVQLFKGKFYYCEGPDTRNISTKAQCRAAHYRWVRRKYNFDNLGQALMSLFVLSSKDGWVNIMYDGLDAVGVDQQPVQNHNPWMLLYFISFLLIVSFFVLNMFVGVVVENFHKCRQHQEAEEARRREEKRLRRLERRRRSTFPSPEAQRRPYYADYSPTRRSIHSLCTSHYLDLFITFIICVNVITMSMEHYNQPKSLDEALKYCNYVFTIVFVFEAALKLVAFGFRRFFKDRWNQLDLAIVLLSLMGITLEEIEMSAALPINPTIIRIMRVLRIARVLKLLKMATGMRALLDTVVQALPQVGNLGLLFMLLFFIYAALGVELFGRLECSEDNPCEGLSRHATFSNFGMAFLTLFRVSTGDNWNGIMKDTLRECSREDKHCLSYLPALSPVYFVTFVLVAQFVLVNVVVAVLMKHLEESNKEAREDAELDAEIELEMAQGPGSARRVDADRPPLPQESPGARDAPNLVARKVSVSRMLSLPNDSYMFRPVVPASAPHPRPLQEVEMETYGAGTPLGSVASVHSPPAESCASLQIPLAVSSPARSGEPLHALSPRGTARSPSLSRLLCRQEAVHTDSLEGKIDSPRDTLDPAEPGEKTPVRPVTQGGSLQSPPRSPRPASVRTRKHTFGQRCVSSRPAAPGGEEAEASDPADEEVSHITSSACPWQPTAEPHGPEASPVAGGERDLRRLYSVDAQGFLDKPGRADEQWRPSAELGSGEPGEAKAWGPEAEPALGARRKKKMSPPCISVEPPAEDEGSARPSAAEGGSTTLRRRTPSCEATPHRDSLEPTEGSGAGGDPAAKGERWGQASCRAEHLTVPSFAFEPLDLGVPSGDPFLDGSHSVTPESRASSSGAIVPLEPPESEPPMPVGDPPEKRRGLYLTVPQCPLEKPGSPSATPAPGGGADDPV

SMILES | pIC50 (Cav3.2) | further results
CC(C)c1ccc(CC(=O)N[C@H](C)c2ccc(OCC(F)(F)F)cn2)cc1 [MK-8998, (R)-2-(4-Isopropylphenyl)-N-(1-(5-(2,2,2-trifluoroethoxy)pyridin-2-yl)ethyl)acetamide] |  | Miro1 Lowering (Miro1 [1]): YES; IC50 (Miro1 [2]): 693 nM
N#Cc1ccc(Cn2ccc(NC(=O)Cc3ccc(C4(C(F)(F)F)CC4)cc3)n2)nc1 [ACT-709478, N-(1-((5-cyanopyridin-2-yl)methyl)-1H-pyrazol-3-yl)-2-(4-(1-(trifluoromethyl)cyclopropyl)phenyl)acetamide] |  | Miro1 Lowering (Miro1 [1]): YES; IC50 (Miro1 [2]): 3930 nM
NS(=O)(=O)Cc1noc2ccccc12 [Zonisamide, 1,2-benzisoxazole-3-methanesulfonamide] |  | Miro1 Lowering (Miro1 [1]): YES
COC(=O)C1=C(C)NC(C)=C(C(=O)OC2CCCN(Cc3ccccc3)C2)C1c1cccc([N+](=O)[O-])c1 (stereo not drawn) [Benidipine, 1,4-dihydro-2,6-dimethyl-4-(3-nitrophenyl)-3,5-pyridine-dicarboxylic acid methyl 1-(phenylmethyl)-3-piperidinyl ester] |  | locomotor decline / locomotion deficits (mutant SNCA flies): significantly improved locomotor decline; locomotor decline / locomotion deficits (mutant SNCA flies; listed as benidipine): rescuing locomotor deficits; Miro1 Lowering (Miro1 [1]): YES; IC50 (Miro1 [2]): 2560 nM
C[C@@H](NC(=O)Cc1ccc(C2CC2)cc1)c1cc2cnn(CC(F)(F)F)c2cn1 [Example 28, (R)-2-(4-cyclopropylphenyl)-N-(1-(1-(2,2,2-trifluoroethyl)-1H-pyrazolo[3,4-c]pyridin-5-yl)ethyl)acetamide] | 7.05 | 
CC(C)c1ccc(CC(=O)N[C@H](C)c2cc3nn(C)cc3cn2)cc1 [Example 4, (R)-2-(4-isopropylphenyl)-N-(1-(2-methyl-2H-pyrazolo[4,3-c]pyridin-6-yl)ethyl)acetamide] | < 5.00 | 
C[C@@H](NC(=O)Cc1ccc(C2CC2)nc1)c1cc2cnn(CC(F)(F)F)c2cn1 [Example 25, (R)-2-(6-cyclopropylpyridin-3-yl)-N-(1-(1-(2,2,2-trifluoroethyl)-1H-pyrazolo[3,4-c]pyridin-5-yl)ethyl)acetamide] | 5.59 | 
CCCn1cc2cc([C@@H](C)NC(=O)Cc3ccc(C(C)C)cc3)ncc2n1 [Example 11, (R)-2-(4-isopropylphenyl)-N-(1-(2-propyl-2H-pyrazolo[3,4-c]pyridin-5-yl)ethyl)acetamide] | 5.62 | 
CC(C)c1ccc(CC(=O)N[C@H](C)c2cc3cnn(CC4(F)CC4)c3cn2)cc1 [Example 18, (R)—N-(1-(1-((1-fluorocyclopropyl)methyl)-1H-pyrazolo[3,4-c]pyridin-5-yl)ethyl)-2-(4-isopropylphenyl)acetamide] | 6.46 | 
O=C(c1cc(S(=O)(=O)Nc2ccccc2F)c(F)cc1Cl)N1CCN2CCC[C@@H]2C1 [ABT-639, 5-[(8aR)-3,4,6,7,8,8a-hexahydro-1H-pyrrolo[1,2-a]pyrazine-2-carbonyl]-4-chloro-2-fluoro-N-(2-fluorophenyl)benzenesulfonamide] |  | Miro1 Lowering (Miro1 [1]): YES; IC50 (Miro1 [2]): 5410 nM
C[C@@H](NC(=O)Cc1ccc(C2CC2)cc1)c1cc2cnn(-c3ccc(F)cc3)c2cn1 [Example 27, (R)-2-(4-cyclopropylphenyl)-N-(1-(1-(4-fluorophenyl)-1H-Pyrazolo[3,4-c]pyridin-5-yl)ethyl)acetamide] | 6.06 | 
C[C@@H](NC(=O)Cc1ccc(C2CC2(F)F)cc1)c1cc2cnn(CC(F)(F)F)c2cn1 (single isomer, unassigned) [Example 30] | 6.32 | 
C[C@@H](NC(=O)Cc1ccc(C(C)(F)F)nc1)c1cc2cnn(CC(F)(F)F)c2cn1 [Example 16, (R)-2-(6-(1,1-difluoroethyl)pyridin-3-yl)-N-(1-(1-(2,2,2-trifluoroethyl)-1H-pyrazolo[3,4-c]pyridin-5-yl)ethyl)acetamide] | 5.90 | 
CC(C)c1ccc(CC(=O)N[C@H](C)c2cc3cnn(CC(F)(F)F)c3cn2)cn1 [Example 20, (R)-2-(6-isopropylpyridin-3-yl)-N-(1-(1-(2,2,2-trifluoroethyl)-1H-pyrazolo[3,4-c]pyridin-5-yl)ethyl)acetamide] | 5.98 | 

Further lines, with some results ahead:

pIC50 (Cav3.2) | SMILES | further results
5.08 | Cc1nn(CC(F)(F)F)c2cnc([C@@H](C)NC(=O)Cc3ccc(C4CC4)cc3)cc12 [Example 33, (R)-2-(4-cyclopropylphenyl)-N-(1-(3-methyl-1-(2,2,2-trifluoroethyl)-1H-pyrazolo[3,4-c]pyridin-5-yl)ethyl)acetamide] | 
6.45 | Cc1nn(C)c2ccc(CC(=O)N[C@H](C)c3cc4cnn(CC(F)(F)F)c4cn3)cc12 [Example 49, (R)-2-(1,3-dimethyl-1H-indazol-5-yl)-N-(1-(1-(2,2,2-trifluoroethyl)-1H-pyrazolo[3,4-c]pyridin-5-yl)ethyl)acetamide] | 
6.95 | CC[C@@H](NC(=O)Cc1ccc(C(F)(F)F)cc1)c1cc2cnn(CC(F)(F)F)c2cn1 [Example 45, (R)—N-(1-(1-(2,2,2-trifluoroethyl)-1H-pyrazolo[3,4-c]pyridin-5-yl)propyl)-2-(4-(trifluoromethyl)phenyl)acetamide] | 
6.09 | Cc1c2ccc(CC(=O)N[C@H](C)c3cc4cnn(CC(F)(F)F)c4cn3)cc2nn1C [Example 46, (R)-2-(2,3-dimethyl-2H-indazol-6-yl)-N-(1-(1-(2,2,2-trifluoroethyl)-1H-pyrazolo[3,4-c]pyridin-5-yl)ethyl)acetamide] | 
6.04 | Cc1nc2cc(CC(=O)N[C@H](C)c3cc4cnn(CC(F)(F)F)c4cn3)ccc2n1C [Example 53, (R)-2-(1,2-dimethyl-1H-benzo[d]imidazol-5-yl)-N-(1-(1-(2,2,2-trifluoroethyl)-1H-pyrazolo[3,4-c]pyridin-5-yl)ethyl)acetamide] | 
7.08 | C[C@@H](NC(=O)Cc1ccc(C(C)(F)F)c(Cl)c1)c1cc2cnn(CC(F)(F)F)c2cn1 [Example 37, (R)-2-(3-chloro-4-(1,1-difluoroethyl)phenyl)-N-(1-(1-(2,2,2-trifluoroethyl)-1H-pyrazolo[3,4-c]pyridin-5-yl)ethyl)acetamide] | 
6.07 | C[C@@H](NC(=O)Cc1ccc2c(c1)c(C#N)cn2C)c1cc2cnn(CC(F)(F)F)c2cn1 [Example 50, (R)-2-(3-cyano-1-methyl-1H-indol-5-yl)-N-(1-(1-(2,2,2-trifluoroethyl)-1H-pyrazolo[3,4-c]pyridin-5-yl)ethyl)acetamide] | 
6.30 | C[C@@H](NC(=O)Cc1ccc(C2CC2(F)F)cc1)c1cc2cnn(CC(F)(F)F)c2cn1 (single isomer, unassigned) [Example 31] | 
6.40 | C[C@@H](NC(=O)Cc1ccc(C(F)(F)F)c(F)c1)c1cc2cnn(CC(F)(F)F)c2cn1 [Example 42, (R)-2-(3-fluoro-4-(trifluoromethyl)phenyl)-N-(1-(1-(2,2,2-trifluoroethyl)-1H-pyrazolo[3,4-c]pyridin-5-yl)ethyl)acetamide] | 
6.59 | C[C@@H](NC(=O)Cc1ccc2c(c1)OC(F)(F)O2)c1cc2cnn(CC(F)(F)F)c2cn1 [Example 48, (R)-2-(2,2-difluorobenzo[d][1,3]dioxol-5-yl)-N-(1-(1-(2,2,2-trifluoroethyl)-1H-pyrazolo[3,4-c]pyridin-5-yl)ethyl)acetamide] | 
